Laboratory results from a melting point compilation (Tetko et al.; mined from patent text by program, amines drawn as free bases though some values may be those of a salt).

Row | melting point | Structure (SMILES)
1 | 232 to 233 °C | COc1cc2c(cc1Br)-c1c(-c3cccs3)c3c(n1CC2)C(=O)N(C(C)(C)C)CCC3
2 | 154 to 156 °C | O=c1[nH]c(=O)n(CCCCBr)c2ccc(Cl)cc12
3 | 180 to 181 °C | Oc1ccc2c(c1)C(c1ccc(OCCN3CCCCC3)cc1)c1c-2ccc2ccccc12 (stereo not drawn)
4 | 226 °C | NS(=O)(=O)c1cccc(-c2cccc(-c3nc(-c4ccc(Cl)s4)cc(C(F)(F)F)n3)c2)c1
5 | 218 to 222 °C | Cc1[nH]c(-c2ccccc2)nc1C(=O)C=CN(C)C
6 | 105 to 108 °C | O=C(Nc1ccc(S(=O)(=O)c2ccccc2)cc1)C(O)(C(F)F)C(F)F
7 | > 300 °C | COc1cc2nc(-c3n[nH]cc3NC(=O)N(C)C)[nH]c2cc1Cl
8 | 220 to 222 °C | NC(=O)c1ccnc(OCc2nc3cc(Cl)ccc3s2)c1
9 | 95 to 98 °C | CN(CCCNC(=O)NCCSCc1csc(NC(=N)N)n1)CCC(c1ccccc1)c1ccccn1 (stereo not drawn)
10 | 116 to 120 °C | O=c1oc(-c2cccc(C(F)(F)F)c2)nc2cccc(Cl)c12
11 | 213 to 215 °C | Cc1cn(C2CC(O)C(CO)S2)c(=O)[nH]c1=O (stereo not drawn)
12 | 117 to 119 °C | CCCCNC(=O)NS(=O)(=O)c1c(C(=O)OCC)cnn1C
13 | 172 to 173 °C | O=CC(=Cc1ccc(Cl)cc1)C(C=O)=Cc1ccc(Cl)cc1
14 | 83 to 85 °C | O=C(CC1CCCCC1)N(O)Cc1ccccc1
15 | 65 to 70 °C | CN1CC(c2ccc(OC(F)(F)F)cc2)(c2ccc(F)c(-c3cccnc3F)c2)N=C1N (stereo not drawn)
16 | 267 to 269 °C | Cc1ccc(CCN2C(=O)COc3ccc(C=C4SC(=S)NC4=O)cc32)cc1
17 | > 250 °C | O=C(Cl)c1cnc(O)c(Cl)c1
18 | 186 to 187 °C | CCOc1ncnc(OC)c1NC(N)=S
19 | 155 to 156 °C | COc1cc(COc2nn(C)cc2C=O)ccc1OCc1nc(-c2ccco2)oc1C
20 | 226 to 227 °C | NC(=O)CCn1c(=S)sc2ccccc21
21 | 205 to 206 °C | C=CCc1c(O)ccc2c1ccc(=O)n2CC=C
22 | 111 to 112 °C | COCNC(=O)SC(C(=O)O)c1ccccc1 (stereo not drawn)
23 | 215 to 217 °C | Cn1ncnc1-c1oc2cccc(OCCc3ccc(F)cc3)c2c(=O)c1O
24 | 135 °C | CCCCN(CCCC)CCCOc1ccc(C(=O)c2c(C)oc3c(NS(C)(=O)=O)cccc23)cc1
25 | 170 to 171 °C | CCOC(=O)c1cn(-c2ccc(OC)cc2F)c2cc(F)c(F)cc2c1=O

Row | melting point | Structure (SMILES)
26 | 139 to 141 °C | Nc1cccc(C=CC(=O)N2CCc3c([nH]c4ccccc34)C2c2ccc3c(c2)OCO3)c1 (stereo not drawn)
27 | 190 to 193 °C | Nc1nc(O)c2c(CCCc3ccc(C(=O)N[C@@H](CCC(=O)O)C(=O)O)cc3)cnc-2[nH]1
28 | 242 to 244 °C | Cc1ccc2[nH]c(-c3ccc(S(N)(=O)=O)cc3)c(-c3ccccc3)c2c1
29 | 179 to 180 °C | O=C(O)C1=Cc2cc(C3CCCCC3)ccc2CC1
30 | 127 to 130 °C | CC(C)C(=O)N[C@@H](CS)C(=O)NCCSC(=O)c1ccccc1
31 | 275 to 285 °C | CCOC(=O)c1c[nH]c2cc(OC)c(OC)cc2c1=O
32 | 160 to 163 °C | O=C1C(Cl)=C(N2CCN(C(=O)Nc3ccccc3Cl)CC2)C(=O)c2ccccc21
33 | 213 to 214 °C | NC(=O)C(=O)c1cccc(Cl)c1Cl
34 | 120 °C | CCOC(=O)c1ccc(-c2cccc(CNC=O)n2)cc1
35 | > 300 °C | CC(=O)Nc1cccc2c1C(=O)c1c-2n[nH]c1-c1ccc(C(F)(F)F)cc1
36 | 177 to 179 °C | COc1cc(Cl)c2c(=O)c(C(C)C)coc2c1
37 | 175 °C | COc1ccc(CN2CCC(C(=O)O)(S(=O)(=O)c3ccc(OC)cc3)CC2)cc1
38 | 192 to 193 °C | COc1ccc(CC(Br)C(N)=O)cc1C(=O)NCc1ccc(C(F)(F)F)cc1 (stereo not drawn)
39 | 124 °C | CC(C)N(CCC(c1ccccc1)c1cc(CO)ccc1OC(=O)c1ccc([N+](=O)[O-])cc1)C(C)C (stereo not drawn)
40 | 102 to 105 °C | Cc1ccc(C(=O)c2c(C)cc(C)cc2O)cc1
41 | 102 to 104 °C | CCCCc1ccc2c(c1)Cc1cc(C(C)=O)ccc1-2
42 | 132 to 135 °C | CCOC(=O)CCc1cccc(N)c1
43 | 96 to 99 °C | [N-]=[N+]=NC1CCCC2(CCCC2)NC1=O (stereo not drawn)
44 | 95 to 96 °C | CC(C)[Si](Oc1ccc2c(c1)CN(Nc1ccccn1)C2)(C(C)C)C(C)C
45 | 42 to 49 °C | CC(C)C[C@H](NC(=O)OCC1CCCCC1)C(=O)NC(C)(C)C(=O)c1c(-c2ccccc2)c1=O
46 | 119 to 121 °C | Cc1cc(C=O)ccc1C(N)=O
47 | 253 to 254 °C | CN1CCN(c2c(CO)cnc3c(NC(=O)c4c(Cl)cccc4Cl)cccc23)C1=S
48 | 110 °C | Clc1nc(Cl)c2c(n1)CCCS2
49 | 107 to 108 °C | COC(=O)[C@@]12CO[C@@H](C(C)(C)C)N1C(=O)[C@@H](C)C2
50 | 204 to 206 °C | CCCCc1ncc(/C=C(\Cc2cccs2)C(N)=O)n1Cc1ccc(C(N)=O)cc1

Row | melting point | Structure (SMILES)
51 | 70 to 73 °C | COc1ccc(S(=O)(=O)C2=C(C(=O)NO)CCC2=CCCc2ccccc2)cc1OC
52 | 160 to 162 °C | CS(=O)(=O)c1ccc(Cl)c2[nH]ccc12
53 | 115 to 116 °C | O=C(O)CCc1cc(OCC2CC2)nn1Cc1ccc(C(F)(F)F)cc1Cl
54 | 63 °C | CN(CCCCCNC(=O)NCCCOc1cccc(CN2CCCCC2)c1)CCN(Cc1ccc(F)cc1)c1ccccn1
55 | 177 °C | CC(C)=CC(=O)N[C@H]1CC[C@H](CCN2CCC(c3cccc4c3CCO4)CC2)CC1
56 | 64 to 65 °C | C=C(CCCCCCCCCCCCCCCC)CC(CO)CO
57 | 108 to 110 °C | Cc1sc(C(F)(F)F)nc1O
58 | 83 to 85 °C | COc1ccc(Nc2ccccc2C=C(Br)Br)cc1OC
59 | 118 to 120 °C | O=Cc1ccc(OCc2ccccc2)c(O)c1
60 | 250 °C | O=C(CNC(=O)C(Cc1ccccc1)CP(=O)(O)O)OCc1ccccc1 (stereo not drawn)
61 | 154 to 158 °C | CCN(CC)C(=O)Cc1c(N)n[nH]c1-c1ccc(OC)cc1
62 | 138 to 140 °C | COC(=O)N=C(NC(=O)OC)Nc1ccc(SCC(C)C)cc1NC(=O)CSC
63 | 158 °C | COC=Nc1c(S(=O)(=O)C(F)(F)F)c(-c2ncon2)nn1-c1c(Cl)cc(C(F)(F)F)cc1Cl
64 | 62 to 63 °C | COc1cc(-c2ncc(C(F)(F)F)cc2OC)ccc1Cl
65 | 84 °C | CCCCOc1ccc(S(=O)(=O)C2(C(=O)NO)CCN(CCCOc3ccccc3)CC2)cc1
66 | 115 to 116 °C | N#Cc1cnc2ccc(/C=C/CCN3CCOCC3)cc2c1Nc1ccc(Cl)cc1Cl
67 | 168 to 170 °C | CC(C)(C)OC(=O)N1CCC(n2cc(-c3ccc(Oc4ccccc4)cc3)c3c(N)ncnc32)C1 (stereo not drawn)
68 | 91 to 93 °C | Cc1ccccc1-c1cc(O)ncc1C(=O)N(C)Cc1cc(C(F)(F)F)cc(C(F)(F)F)c1
69 | 33.8 to 35.5 °C | C=CC(=O)OCCCCCCC(CCCCCCOC(=O)C=C)C(=O)OCCCCCCCCCCCCCCCCOc1ccc(-c2cccc(F)c2F)cc1
70 | 149 to 150 °C | O=C(O)COc1ccc(SCc2ccc(OCc3ccc(Cl)cc3Cl)cc2)c2c1CCC2
71 | 93 to 98 °C | COc1ccc(/C=C/C#N)cc1OC
72 | 125 °C | CC1CNc2c(cccc2[N+](=O)[O-])C(=O)N1Cc1ccccc1 (stereo not drawn)
73 | 267 to 270 °C | Cc1ccc2cccc(OCc3c(Cl)ccc(C(=O)O)c3Cl)c2n1
74 | 125 °C | CCOC(=O)CCN(C(C)(C)C(=O)NO)S(=O)(=O)c1ccc(Oc2ccc(F)cc2)cc1
75 | 183 °C | O=C1C(O)=C(Br)C(=O)c2ccc(F)cc21

Row | melting point | Structure (SMILES)
76 | 154 to 155 °C | Nc1cccc(C(CC2=NCCN2)c2ccccn2)c1 (stereo not drawn)
77 | 83 °C | COc1ccc(N)cc1NC(C)=O
78 | 183 °C | COc1ccc(-c2nc(Sc3ccccc3NC(C)=O)[nH]c2-c2ccc(OC)cc2)cc1
79 | 125 to 127 °C | COc1cccc(OC2CN([C@H]3CC[C@@H](c4c[nH]c5ccc(F)cc54)CC3)C2)c1
80 | 207 to 216 °C | Cc1cc2c(c(C(C)(C)C)c1)OP(NC1CC(C)(C)N(C)C(C)(C)C1)Oc1c(cc(C)cc1C(C)(C)C)C2
81 | > 220 °C | CC(C)(C)C(=O)c1sc(N)nc1-c1ccc(P(=O)(O)O)o1
82 | 81 to 82 °C | COC(=O)c1ccc(C#CCO)cc1
83 | 169 to 171 °C | O=C1NCc2c(Cl)nc3ccccc3c21
84 | 101 to 102 °C | Cc1cccc(N2CCN(C(=O)OC(C)(C)C)CC2)c1[N+](=O)[O-]
85 | 87 to 88 °C | BrC1=C(Br)C(Br)(Br)C(Br)=C1Br
86 | 121 to 123 °C | O=C1CCCc2c(cccc2OCC2CO2)N1 (stereo not drawn)
87 | 110 to 112 °C | CCOc1nc(NCc2ccco2)nc(Nc2ccc3[nH]cnc3c2)n1
88 | 60 to 62 °C | COC(=O)C(Oc1ccc2c(c1)CCC2)c1ccc(OCCCOc2ccc(Cl)cc2)cc1 (stereo not drawn)
89 | 134 to 136 °C | CC(C)c1c(C=O)c(-c2ccccc2)c2c3ccccc3ccn12
90 | 166 to 168 °C | O=C1N(Cc2ccc(Cl)s2)c2cccc(-c3ccoc3)c2C12COc1cc3c(cc12)OCO3 (stereo not drawn)
91 | 104 to 105 °C | CC(C)(C)OC(=O)c1cc2ccccc2[nH]1
92 | 105 °C | O=C(O)CCCCCCCCCCCOc1ccccc1OCCCC(=O)O
93 | 106 to 107 °C | O=C(O)CCc1cnoc1-c1ccc(Cl)cc1Cl
94 | 224 to 225 °C | O=C(Nc1ncccn1)Nc1ccccc1C(F)(F)F
95 | 82 °C | CCCCCCCCCCCC1=NCCN1
96 | 233 to 236 °C | Nc1nc2c(c(Nc3cccc(Br)c3)n1)-c1ccccc1C2
97 | 146 °C | CCOC(OCC)N1C(=O)C2(CCCCC2)c2cc(-c3cc(F)cc(C#N)c3)ccc21
98 | 180 to 182 °C | COc1ccc(-c2ccc(C(=O)Nc3ccc4cc(CN5CCCC5)cnc4c3C)cn2)cc1
99 | 155 to 156 °C | CC(C)(C)c1cc(C(O)C#Cc2ccc(C(=O)O)cc2)cc(C(C)(C)C)c1OCOCC[Si](C)(C)C (stereo not drawn)

Row | Structure (SMILES) | melting point
100 | COc1ccc(-n2c(CF)nc3ccc([N+](=O)[O-])cc3c2=O)c(C)c1 | 190 to 192 °C
101 | c1cnc2[nH]cc(C3CN4CCC3CC4)c2c1 (stereo not drawn) | 185 °C
102 | CCC(=O)N1N=C(c2ccc([N+](=O)[O-])c(C)c2)c2cc(Cl)ccc2C=C1C | 134 to 138 °C
103 | CNC(=C[N+](=O)[O-])N1CC1 | 118 to 119 °C
